From patent publication US20180078609A1, “METHODS AND COMPOSITIONS FOR TREATING ALZHEIMER'S DISEASE AND OTHER MEMORY-ASSOCIATED DISORDERS AND CONDITIONS” (Massachusetts Institute of Technology, priority 2016, published 2018)

Legend:
[1] = system: DG engram cells; assay: Dendritic spine density analysis of DG engram cells after in vivo optical LTP; design: species or system mouse; settings: early AD mice treated with anisomycin after LTP induction
Experimental: Engram cells were labelled using c-Fos-tTA-driven synthesis of ChR2-eYFP or eYFP alone. The eYFP signal was amplified using immunohistochemistry procedures, after which fluorescence z-stacks were taken by confocal microscopy (Zeiss LSM700) using a×40 objective. Maximum intensity projections were generated using ZEN Black software (Zeiss). Four mice per experimental group were analyzed for dendritic spines. For each mouse, 30-40 dendritic fragments of 10-μm length were quantified (n=120-160 fragments per group). To measure spine density of DG engram cells with a focus on entorhinal cortical inputs, distal dendritic fragments in the middle-to-outer molecular layer (ML) were selected. For CA3 and CA1 engram cells, apical and basal dendritic fragments were selected. To compute spine density, the number of spines counted on each fragment was normalized by the cylindrical approximation of the surface of the specific fragment. Experiments were conducted blind to experimental group. Researcher 1 imaged dendritic fragments and randomized images, while researcher 2 performed manual spine counting.
(§1) One day after CFC training and engram labelling (DG plus PP terminals) in control and early AD groups, mice were placed in an open field arena (52×26 cm) after patch cords were fitted to the fiber implants. […]

[2] = system: early AD mice; assay: Contextual fear conditioning memory recall (freezing) after in vivo optical LTP; design: species or system mouse
Description: Two distinct contexts were employed [Ryan, T. J., et al. (2015) Science 348, 1007-1013]. Context A was 29×25×22 cm chambers with grid floors, opaque triangular ceilings, red lighting, and scented with 1% acetic acid. Four mice were run simultaneously in four identical context A chambers. Context B consisted of four 30×25×33 cm chambers with perspex floors, transparent square ceilings, bright white lighting, and scented with 0.25% benzaldehyde. All mice were conditioned in context A (two 0.60 mA shocks of 2 s duration in 5 min), and tested (3 min) in contexts A and B 1 day later. […] Floors of chambers were cleaned with quatricide before and between runs. Mice were transported to and from the experimental room in their home cages using a wheeled cart. The cart and cages remained in an anteroom to the experimental rooms during all behavioral experiments. For engram labeling, mice were kept on regular food without DOX for 24 h before training. When training was complete, mice were switched back to food containing 40 mg kg^−1 DOX.
as §1

[3] = system: DG; assay: Kainic acid seizure-induced ChR2-eYFP labelling; type: in vivo, mouse; settings: 1 day off DOX; 15 mg kg−1 i.p. kainic acid
Experimental: For seizure experiments [Liu, X., et al. (2012) Nature 484, 381-385], mice were taken off DOX for 1 day and injected intraperitoneally with 15 mg kg^−1 kainic acid (KA). Mice were returned to DOX food 6 h after KA treatment and perfused the next day for immunohistochemistry procedures.
To characterize the expression pattern of ChR2-eYFP, DTR-eYFP, eYFP alone and oChIEF-tdTomato in control and AD mice, the number of eYFP^+/tdTomato^+ neurons were counted from 4-5 coronal slices per mouse (n=3-5 mice per group). Coronal slices centered on coordinates covered by optic fiber implants were taken for DG quantification and sagittal slices centered on injection coordinates were taken for MEC and LEC. Fluorescence images were acquired using a Zeiss Axiolmager.Z1/ApoTome microscope (×20). […] The number of eYFP^+/tdTomato^+ cells per section was calculated by applying a threshold above background fluorescence. Data were analyzed using Microsoft Excel with the Statplus plug-in. A similar approach was applied for quantifying amyloid-3 plaques, c-Fos^+ neurons and adult newborn (DCX^+) neurons. Total engram cell reactivation was calculated as ((c-Fos^+ eYFP^+)/(total DAPI^+))×100. Chance overlap was calculated as ((c-Fos^+/total DAPI^+)×(eYFP^+/total DAPI^+))×100. Percentage of adult newborn neurons expressing neuronal markers was calculated as ((NeuN^+ DCX^+)/(total DCX^+))×100. […]

[4] = system: DG engram cells; assay: DTR-mediated ablation of engram cells, DTR-eYFP cell counts; type: in vivo, mouse; settings: DTR-expressing DG engram cells after DT administration
Experimental: Mice were dispatched using 750-1,000 mg kg^−1 avertin and perfused transcardially with PBS, followed by 4% paraformaldehyde (PFA). Brains were extracted and incubated in 4% PFA at room temperature overnight. Brains were transferred to PBS and 50 μm coronal slices were prepared using a vibratome. For immunostaining [Ryan, T. J., et al. (2015) Science 348, 1007-1013], each slice was placed in PBS+0.2% Triton X-100 (PBS-T), with 5% normal goat serum for 1 h and then incubated with primary antibody at 4° C. for 24 h. Slices then underwent three wash steps for 10 min each in PBS-T, followed by 1 h incubation with secondary antibody. […]
To characterize the expression pattern of ChR2-eYFP, DTR-eYFP, eYFP alone and oChIEF-tdTomato in control and AD mice, the number of eYFP^+/tdTomato^+ neurons were counted from 4-5 coronal slices per mouse (n=3-5 mice per group). Coronal slices centered on coordinates covered by optic fiber implants were taken for DG quantification and sagittal slices centered on injection coordinates were taken for MEC and LEC. Fluorescence images were acquired using a Zeiss Axiolmager.Z1/ApoTome microscope (×20). […] The number of eYFP^+/tdTomato^+ cells per section was calculated by applying a threshold above background fluorescence. Data were analyzed using Microsoft Excel with the Statplus plug-in. […]

[5] = system: DG mossy cells; assay: Calretinin (CR+) staining of mossy cell axons after engram cell ablation; type: in vivo, mouse; settings: after DT administration
Experimental: Mice were dispatched using 750-1,000 mg kg^−1 avertin and perfused transcardially with PBS, followed by 4% paraformaldehyde (PFA). Brains were extracted and incubated in 4% PFA at room temperature overnight. Brains were transferred to PBS and 50 μm coronal slices were prepared using a vibratome. For immunostaining [Ryan, T. J., et al. (2015) Science 348, 1007-1013], each slice was placed in PBS+0.2% Triton X-100 (PBS-T), with 5% normal goat serum for 1 h and then incubated with primary antibody at 4° C. for 24 h. Slices then underwent three wash steps for 10 min each in PBS-T, followed by 1 h incubation with secondary antibody. After three more wash steps of 10 min each in PBS-T, slices were mounted on microscope slides. All analyses were performed blind to the experimental conditions. Antibodies used for staining were as follows: to stain for ChR2-eYFP, DTR-eYFP or eYFP alone, slices were incubated with primary chicken anti-GFP (1:1,000, Life Technologies) and visualized using anti-chicken Alexa-488 (1:200). For plaques, slices were stained using primary mouse anti-β-amyloid (1:1,000; Sigma-Aldrich) and secondary anti-mouse Alexa-488 (1:500). c-Fos was stained with rabbit anti-c-Fos (1:500, Calbiochem) and anti-rabbit Alexa-568 (1:300). Adult newborn neurons were stained with guinea pig anti-DCX (1:1,000; Millipore) and anti-guinea-pig Alexa-555 (1:500). […]

COc1ccc(C[C@H]2NC[C@H](O)[C@H]2OC(C)=O)cc1 [anisomycin]
Average dendritic spine density vs saline-treated AD mice [1]: decreased | Memory recall freezing vs saline-treated AD mice ([2]; AD+100 Hz+Aniso, 2 days after LTP induction followed by drug administration, 75 mg kg−1 i.p. twice): less freezing

C=C(C)[C@H]1CN[C@H](C(=O)O)[C@H]1CC(=O)O [kainic acid]
ChR2-eYFP labelling after seizures [3]: efficient labelling throughout the DG

diphtheria toxin
Ablation of DG engram cells [4]: efficiently ablated DG engram cells | Effect on nearby DG mossy cells [5]: intact | Memory recall freezing vs saline-treated mice ([2]; AD rescue+DTR+DT, after optical LTP spine restoration): less freezing
